# Data as given in PMC10819888, “Benzimidazole-Based Derivatives as Apoptotic Antiproliferative Agents: Design, Synthesis, Docking, and Mechanistic Studies” (Molecules, 2024).
# Tests used:
# CAKI-1 = experiment: NCI-60 five-dose assay; format: cell-based, human; settings: CAKI-1, Renal Cancer
# TK-10 = experiment: NCI-60 five-dose assay; format: cell-based, human; settings: TK-10, Renal Cancer
# A498 = experiment: NCI-60 five-dose assay; format: cell-based, human; settings: A498, Renal Cancer
# HCT-116 = experiment: NCI-60 five-dose assay; format: cell-based, human; settings: HCT-116, Colon Cancer
# HT29 = experiment: NCI-60 five-dose assay; format: cell-based, human; settings: HT29, Colon Cancer
# MCF7 = experiment: NCI-60 five-dose assay; format: cell-based, human; settings: MCF7, Breast Cancer
# DU-145 = experiment: NCI-60 five-dose assay; format: cell-based, human; settings: DU-145, Prostate Cancer
# BRAF^V600E = experiment: biochemical
# MDA-MB-231 = experiment: NCI-60 five-dose assay; format: cell-based, human; settings: MDA-MB-231, Breast Cancer
# CNS Cancer subpanel = experiment: NCI-60 five-dose assay, subpanel; format: cell-based, human; settings: CNS Cancer
# CCRF-CEM = experiment: NCI-60 five-dose assay; format: cell-based, human; settings: CCRF-CEM, Leukemia
# NCI-H522 = experiment: NCI-60 five-dose assay; format: cell-based, human; settings: NCI-H522, Non-Small Cell Lung Cancer
# Colon Cancer subpanel = experiment: NCI-60 five-dose assay, subpanel; format: cell-based, human; settings: Colon Cancer
# MDA-MB-468 = experiment: NCI-60 five-dose assay; format: cell-based, human; settings: MDA-MB-468, Breast Cancer
# [1] = tested on: Non-Small Cell Lung Cancer subpanel; experiment: NCI-60 five-dose assay, subpanel; format: cell-based, human; settings: Non-Small Cell Lung Cancer
# SK-MEL-28 = experiment: NCI-60 five-dose assay; format: cell-based, human; settings: SK-MEL-28, Melanoma
# A549/ATCC = experiment: NCI-60 five-dose assay; format: cell-based, human; settings: A549/ATCC, Non-Small Cell Lung Cancer
# PC-3 = experiment: NCI-60 five-dose assay; format: cell-based, human; settings: PC-3, Prostate Cancer
# SNB-75 = experiment: NCI-60 five-dose assay; format: cell-based, human; settings: SNB-75, CNS Cancer
# 786-0 = experiment: NCI-60 five-dose assay; format: cell-based, human; settings: 786-0, Renal Cancer
# SR = experiment: NCI-60 five-dose assay; format: cell-based, human; settings: SR, Leukemia
# [2] = Homo sapiens, read-out: GI50 Conc. per Cell Line
# [3] = Homo sapiens, read-out: LC50 (the source's name)
# [4] = Homo sapiens, average sensitivity of all subpanel cell lines, read-out: GI50 Subpanel MID b
# Chain of BRAF^V600E (P28028 whole entry V585E): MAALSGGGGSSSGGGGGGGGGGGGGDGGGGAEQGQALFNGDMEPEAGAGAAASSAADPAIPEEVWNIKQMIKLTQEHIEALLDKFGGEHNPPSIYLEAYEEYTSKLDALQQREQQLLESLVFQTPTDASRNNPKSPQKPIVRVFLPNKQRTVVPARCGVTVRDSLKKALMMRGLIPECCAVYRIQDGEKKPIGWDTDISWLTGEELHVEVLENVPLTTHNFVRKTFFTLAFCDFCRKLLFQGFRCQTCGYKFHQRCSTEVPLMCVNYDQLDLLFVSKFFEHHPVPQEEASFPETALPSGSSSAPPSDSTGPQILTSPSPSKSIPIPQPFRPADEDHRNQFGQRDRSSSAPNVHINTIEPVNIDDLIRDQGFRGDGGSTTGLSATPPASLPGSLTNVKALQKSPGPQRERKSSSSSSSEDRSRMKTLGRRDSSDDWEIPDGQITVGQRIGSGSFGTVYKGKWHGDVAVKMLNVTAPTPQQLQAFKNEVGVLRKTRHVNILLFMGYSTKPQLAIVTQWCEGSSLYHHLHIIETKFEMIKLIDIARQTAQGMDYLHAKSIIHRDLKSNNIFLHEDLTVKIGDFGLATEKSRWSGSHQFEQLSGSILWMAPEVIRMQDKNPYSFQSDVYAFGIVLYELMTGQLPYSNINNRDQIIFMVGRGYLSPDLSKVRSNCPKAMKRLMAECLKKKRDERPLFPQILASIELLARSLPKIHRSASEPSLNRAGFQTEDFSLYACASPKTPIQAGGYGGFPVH
structure (smiles),measurement,setting,value
"COc1ccc(C=NNC(=O)c2ccc3[nH]c(-c4ccc(Cl)cc4)nc3c2)cc1 [Compound 4g, N′-(4-Methoxybenzylidene)-2-(4-chlorophenyl)-1H-benzimidazole-5-carbohydrazide]",TGI,CAKI-1,6.03 µM
same,GI50,CAKI-1; [2],2.1 µM
same,CC50,CAKI-1; [3],25.6 µM
same,GI50,TK-10; [2],2.95 µM
same,CC50,TK-10; [3],56.7 µM
same,TGI,TK-10,6.59 µM
same,TGI,A498,9.87 µM
same,GI50,A498; [2],2.45 µM
same,CC50,A498; [3],54.6 µM
same,TGI,HCT-116,5.12 µM
same,GI50,HCT-116; [2],2.14 µM
same,CC50,HCT-116; [3],18.9 µM
same,TGI,HT29,22.10 µM
same,GI50,"HT29; Homo sapiens, HT-29, read-out: GI50 Conc. per Cell Line",3.09 µM
same,CC50,"HT29; Homo sapiens, HT-29, read-out: LC50 (the source's name)",> 100 µM
same,GI50,MCF7; [2],1.47 µM
same,CC50,MCF7; [3],10 µM
same,TGI,MCF7,3.84 µM
same,TGI,DU-145,4.61 µM
same,GI50,DU-145; [2],1.98 µM
same,CC50,DU-145; [3],14 µM
same,IC50,BRAF^V600E,0.6 ± 0.05 µM
same,GI50,MDA-MB-231; [2],2.42 µM
same,CC50,MDA-MB-231; [3],18.8 µM
same,TGI,MDA-MB-231,5.45 µM
same,GI50 Selectivity Ratio (MID a/MID b),CNS Cancer subpanel,1.15
same,GI50,CNS Cancer subpanel; [4],2.19 µM
same,TGI,CCRF-CEM,>100 µM
same,GI50,CCRF-CEM; [2],4.9 µM
same,CC50,CCRF-CEM; [3],> 100 µM
same,GI50,NCI-H522; [2],7.6 µM
same,CC50,NCI-H522; [3],> 100 µM
same,TGI,NCI-H522,81.50 µM
same,GI50 Selectivity Ratio (MID a/MID b),Colon Cancer subpanel,0.96
same,GI50,Colon Cancer subpanel; [4],2.63 µM
same,LC50 (concentration killing 50% of cells),MDA-MB-468; Homo sapiens,12.6 µM
same,GI50,MDA-MB-468; [2],1.94 µM
same,TGI,MDA-MB-468,4.55 µM
same,GI50,[1]; [4],2.71 µM
same,GI50 Selectivity Ratio (MID a/MID b),[1],0.93
same,GI50,SK-MEL-28; [2],1.79 µM
same,CC50,SK-MEL-28; [3],6.35 µM
same,TGI,SK-MEL-28,3.37 µM
same,TGI,A549/ATCC,5.65 µM
same,GI50,A549/ATCC; [2],2.46 µM
same,CC50,A549/ATCC; [3],48.1 µM
same,LC50,PC-3; Homo sapiens,8.55 µM
same,GI50,PC-3; [2],1.65 µM
same,TGI,PC-3,3.76 µM
same,GI50,SNB-75; [2],1.53 µM
same,CC50,SNB-75; [3],25.7 µM
same,TGI,SNB-75,4.57 µM
same,TGI,786-0,3.67 µM
same,GI50,786-0; [2],1.93 µM
same,CC50,786-0; [3],6.98 µM
same,GI50,SR; [2],2.87 µM
same,CC50,SR; [3],> 100 µM
same,TGI,SR,15.40 µM
